“Also recorded” adds a separate entry of the source.
Tests used:
[1] = test system: LPS induced pro-inflammatory cytokine levels; assay: Serum TNF-α and IL-6 by ELISA after LPS injection and ICV infusion; type: in vivo; conditions: high fat diet C57B1/6 mice, LPS 1 mg/kg i.p., ICV insulin 0.02 mU/h for 4 h vs vehicle, p<0.05
Experimental: (§1) FIG. 1A-B: FIG. 1A, Experimental protocol for high fat diet feeding and intracerebroventricular (ICV) cannula implantation. 4 week old male C57B1/6 mice were fed a high fat diet for 4 weeks and ICV cannulae were implanted. After 5 days recovery from surgery infusion studies were performed. FIG. 1B, Protocol for infusion studies. Mice were injected with lipopolysaccharides (LPS) (1 mg/kg, i.p.) and randomly assigned to receive ICV insulin or vehicle infusions for 4 hours until necropsy.
FIG. 3: ICV insulin treatment reduces LPS induced pro-inflammatory cytokine levels. Mice were injected with LPS (1mg/kg, i.p.) infused with central insulin (0.02 mU/h) or vehicle for 4 h and sacrificed. Serum concentrations of TNF-α and IL-6 were determined by ELISA. n=12-14 per group, *p<0.05.
Male C57B1/6 mice were weaned at 4 weeks of age and fed a High Fat Diet (HFD) for 35 days to induce insulin resistance. After 30 days of HFD feeding, the mice underwent stereotactic surgery to implant intracerebroventricular (ICV) guide cannula (see, FIG. 2 for an illustration of cannula placement) followed by a 5-day recovery period until infusion experiments were carried out. […]

[2] = test system: LPS induced pro-inflammatory proteins in spleen; assay: Western blot of spleen tissue lysates after LPS injection and ICV infusion; type: in vivo, mice; conditions: LPS 1 mg/kg i.p., ICV infusion 4 h, vs vehicle
Experimental: as §1
FIG. 4: ICV insulin treatment reduces LPS induced pro-inflammatory proteins in spleen. Quantification of Western blot analyses from spleen tissue lysates expressed as fold change to vehicle and normalized over β-actin. Activation of the transcription factors Stat1 and Stat3 is decreased. The pro-inflammatory markers IL-1β, COX2 and IKK-β are reduced in the ICV insulin infused animals. n=6 per group, *p<0.05.
(§2) Male C57B1/6 mice were weaned at 4 weeks of age and fed a High Fat Diet (HFD) for 35 days to induce insulin resistance. After 30 days of HFD feeding, the mice underwent stereotactic surgery to implant intracerebroventricular (ICV) guide cannula (see, FIG. 2 for an illustration of cannula placement) followed by a 5-day recovery period until infusion experiments were carried out. On the day of the experiment, animals were placed in individual cages, received an intraperitoneal (i.p.) injection of E. coli (LPS) (1 mg/kg) and were continuously ICV infused using a micro infusion pump with Artificial CerebroSpinal Fluid (ACSF) or Insulin (0.005 mU/h) for 4 hours, yielding a total dose of 0.020 mU. See FIG. 1A-B for a graphical illustration of the protocol.
(§3) To investigate whether central insulin reduces cytokine signaling in peripheral tissues, the expression and phosphorylation of signal transducer and activator of transcription (Stat) was measured in lung (FIG. 4), spleen (FIG. 5) and liver (FIG. 6) tissue by western blot. […] Likewise, the activation of Stat3 which plays a central role in signaling of IL-6 and related cytokines was decreased in peripheral tissues after ICV insulin infusion. Lower protein levels of the pro-inflammatory cytokine IL-1β were detectable in the insulin-infused animals in liver, spleen and lung tissue. Lower IL-1β levels in lung tissue has been associated with improvement of acute lung injury, which is a clinically important sequelae in sepsis.

[3] = test system: LPS induced pro-inflammatory proteins in lung; assay: Western blot of lung tissue lysates after LPS injection and ICV infusion; type: in vivo, mice; conditions: LPS 1 mg/kg i.p., ICV infusion 4 h, vs vehicle
Experimental: as §1
FIG. 5: ICV insulin treatment reduces LPS induced pro-inflammatory proteins in lung. Quantification of Western blot analyses from lung tissue lysates expressed as fold change to vehicle and normalized over α-tubulin. Activation of the transcription factors Stat1 is decreased by central insulin. The level of the pro-inflammatory cytokine IL-1β is reduced in the ICV insulin infused animals. n=6 per group, *p<0.05.
Male C57B1/6 mice were weaned at 4 weeks of age and fed a High Fat Diet (HFD) for 35 days to induce insulin resistance. […]
To investigate whether central insulin reduces cytokine signaling in peripheral tissues, the expression and phosphorylation of signal transducer and activator of transcription (Stat) was measured in lung (FIG. 4), spleen (FIG. 5) and liver (FIG. 6) tissue by western blot. […]

[4] = test system: LPS induced pro-inflammatory proteins in liver; assay: Western blot of liver tissue lysates after LPS injection and ICV infusion; type: in vivo, mice; conditions: LPS 1 mg/kg i.p., vs vehicle
Experimental: Quantification of western blot analyses from liver tissue lysates expressed as fold change to vehicle and normalized over β-actin.
Quantification of western blot analyses from liver tissue lysates expressed as fold change to vehicle and normalized over β-actin. Mice were injected with LPS (1 mg/kg, i.p.) and randomly assigned to receive ICV glucose (4 mM) or vehicle infusions for 4 hours until necropsy.

[5] = test system: signal transducer and activator of transcription (Stat); assay: Stat expression and phosphorylation in peripheral tissues (lung, spleen, liver) by western blot; type: in vivo, mice; conditions: after ICV insulin infusion
Experimental: as §2
as §3, with “Lower IL-1β levels in lung tissue has been associated with improvement of acute lung injury, which is a clinically important sequelae in sepsis.” left out

LPS-treated mice = assay: Survival in a mouse model of sepsis (LPS 5 mg/kg, i.p.); type: in vivo; conditions: high fat diet C57B16 mice, ICV infusion up to 5 days, vs vehicle, assessed daily
Experimental: FIG. 9: ICV insulin improves survival in a mouse model of sepsis. 4 weeks old C57B16 mice were fed high fat diet for 4 weeks and ICV cannulas were implanted. Mice were injected with LPS (5 mg/kg, ip) and randomly assigned to receive ICV insulin or vehicle infusions for up to 5 days (n=11 per group). Survival was assessed daily as depicted.
In view of the potent anti-inflammatory effects mediated by insulin when administered to the CNS, studies were undertaken to determine whether administration of insulin to the CNS would protect mice from death in a sepsis model. 4-week old C57B16 mice were fed high fat diet for 4 weeks and ICV cannulas were implanted as described above. Mice were injected with LPS (5 mg/kg, i.p.) and randomly assigned to receive ICV insulin or vehicle infusions for up to 5 days (n=11 per group). Survival was assessed daily and results were plotted, see, e.g., FIG. 9.

[6] = ICV insulin 4 h, normalized over β-actin

Row | Molecule | Serum concentration of IL-6 [1] | Serum concentration of TNF-α [1] | COX2 protein in spleen [2] | IKK-β protein in spleen [2] | IL-1β protein in spleen [2] | Activation of Stat1 in spleen ([2]; normalized over β-actin) | Activation of Stat3 in spleen ([2]; normalized over β-actin) | IL-1β protein in lung [3] | Activation of Stat1 in lung ([3]; normalized over α-tubulin) | IL-1β protein in liver ([4]; ICV insulin 4 h) | Activation of Stat1 in liver [4, 6] | Activation of Stat3 in liver [4, 6] | Activation of Stat3 in peripheral tissues [5] | LPS induced phosphorylation of Stat1 ([5]; measured in lung, spleen and liver) | Survival (LPS-treated mice) | Activation of Stat1 in liver ([4]; ICV glucose 4 mM for 4 hours) | Activation of Stat3 in liver ([4]; ICV glucose 4 mM for 4 hours) | IKK-β levels in liver (NF-κB signaling) ([4]; ICV glucose 4 mM for 4 hours) | PDI expression in liver (marker for ER stress) ([4]; ICV glucose 4 mM for 4 hours)
1 | insulin | reduces | reduces | reduced | reduced | reduced; also recorded: Lower | decreased | decreased | reduced; also recorded: Lower | decreased | reduced; also recorded: Lower | decreased | decreased | decreased | marked inhibition | significantly (p=0.0194) improved; also recorded: significantly improve the survival |  |  |  | 
2 | O=C[C@H](O)[C@@H](O)[C@H](O)[C@H](O)CO [glucose] |  |  |  |  |  |  |  |  |  |  |  |  |  |  |  | significantly increased | significantly increased | Higher levels | Higher levels; also recorded: elevated
